In the CheMixHub viscosity set:
Several values for one entry are separate records, joined by “and”; a condition that tells them apart may be missing. Equal entries are not always repeated. ± gives the uncertainty stated by the source.

Experiment: xn = mol fraction of the nth substance listed

CN[C@@H]1[C@H](O[C@H]2[C@H](O[C@H]3[C@H](O)[C@@H](O)[C@H](NC(=N)N)[C@@H](O)[C@@H]3NC(=N)N)O[C@@H](C)[C@]2(O)C=O)O[C@@H](CO)[C@H](O)[C@H]1O.CN[C@@H]1[C@H](O[C@H]2[C@H](O[C@H]3[C@H](O)[C@@H](O)[C@H](NC(=N)N)[C@@H](O)[C@@H]3NC(=N)N)O[C@@H](C)[C@]2(O)C=O)O[C@@H](CO)[C@H](O)[C@H]1O.O=S(=O)(O)O.O=S(=O)(O)O.O=S(=O)(O)O + O
Details	viscosity
293.15 K, 101.3 kPa, x1 = 0.00018	1.053 ± 0.06 mPa·s
293.15 K, 101.3 kPa, x1 = 0.0003604	1.102 ± 0.061 mPa·s
293.15 K, 101.3 kPa, x1 = 0.00054	1.156 ± 0.061 mPa·s
293.15 K, 101.3 kPa, x1 = 0.0007203	1.207 ± 0.061 mPa·s
293.15 K, 101.3 kPa, x1 = 0.0009005	1.266 ± 0.061 mPa·s
293.15 K, 101.3 kPa, x1 = 0.00108	1.328 ± 0.061 mPa·s
293.15 K, 101.3 kPa, x1 = 0.00126	1.393 ± 0.061 mPa·s
293.15 K, 101.3 kPa, x1 = 0.001439	1.446 ± 0.061 mPa·s
298.15 K, 101 kPa, x1 = 7.6e-05	0.9256 ± 0.019 mPa·s
298.15 K, 101 kPa, x1 = 0.0001	0.9434 ± 0.0064 mPa·s
298.15 K, 101 kPa, x1 = 0.00015	0.9504 ± 0.02 mPa·s
298.15 K, 101 kPa, x1 = 0.000216	0.9744 ± 0.021 mPa·s
298.15 K, 101 kPa, x1 = 0.000286	0.9974 ± 0.021 mPa·s
298.15 K, 101 kPa, x1 = 0.0003	0.9849 ± 0.0066 mPa·s
298.15 K, 101 kPa, x1 = 0.000358	1.02 ± 0.021 mPa·s
298.15 K, 101.3 kPa, x1 = 0.00018	0.939 ± 0.06 mPa·s
298.15 K, 101.3 kPa, x1 = 0.0003604	0.985 ± 0.06 mPa·s
298.15 K, 101.3 kPa, x1 = 0.00054	1.037 ± 0.06 mPa·s
298.15 K, 101.3 kPa, x1 = 0.0007203	1.089 ± 0.061 mPa·s
298.15 K, 101.3 kPa, x1 = 0.0009005	1.147 ± 0.061 mPa·s
298.15 K, 101.3 kPa, x1 = 0.00108	1.192 ± 0.061 mPa·s
298.15 K, 101.3 kPa, x1 = 0.00126	1.249 ± 0.061 mPa·s
298.15 K, 101.3 kPa, x1 = 0.001439	1.296 ± 0.061 mPa·s
298.15 K, 101.33 kPa, x1 = 7e-07	0.8964 ± 0.042 mPa·s
298.15 K, 101.33 kPa, x1 = 9e-07	0.8973 ± 0.042 mPa·s
298.15 K, 101.33 kPa, x1 = 1e-06	0.8981 ± 0.042 mPa·s and 0.899 ± 0.042 mPa·s and 0.8998 ± 0.042 mPa·s
298.15 K, 101.33 kPa, x1 = 1.8e-06	0.9034 ± 0.042 mPa·s
298.15 K, 101.33 kPa, x1 = 2e-06	0.9025 ± 0.042 mPa·s and 0.9043 ± 0.042 mPa·s
298.15 K, 101.33 kPa, x1 = 2.2e-06	0.9051 ± 0.042 mPa·s
303.15 K, 101 kPa, x1 = 7.6e-05	0.8296 ± 0.017 mPa·s
303.15 K, 101 kPa, x1 = 0.0001	0.8493 ± 0.0058 mPa·s
303.15 K, 101 kPa, x1 = 0.00015	0.8528 ± 0.018 mPa·s
303.15 K, 101 kPa, x1 = 0.000216	0.8752 ± 0.018 mPa·s
303.15 K, 101 kPa, x1 = 0.000286	0.8971 ± 0.019 mPa·s
303.15 K, 101 kPa, x1 = 0.0003	0.8904 ± 0.0061 mPa·s
303.15 K, 101 kPa, x1 = 0.000358	0.919 ± 0.019 mPa·s
303.15 K, 101.3 kPa, x1 = 0.00018	0.844 ± 0.06 mPa·s
303.15 K, 101.3 kPa, x1 = 0.0003604	0.887 ± 0.06 mPa·s
303.15 K, 101.3 kPa, x1 = 0.00054	0.936 ± 0.06 mPa·s
303.15 K, 101.3 kPa, x1 = 0.0007203	0.981 ± 0.06 mPa·s
303.15 K, 101.3 kPa, x1 = 0.0009005	1.035 ± 0.06 mPa·s
303.15 K, 101.3 kPa, x1 = 0.00108	1.079 ± 0.061 mPa·s
303.15 K, 101.3 kPa, x1 = 0.00126	1.126 ± 0.061 mPa·s
303.15 K, 101.3 kPa, x1 = 0.001439	1.171 ± 0.061 mPa·s
303.15 K, 101.33 kPa, x1 = 5e-07	0.8016 ± 0.041 mPa·s
303.15 K, 101.33 kPa, x1 = 7e-07	0.8024 ± 0.041 mPa·s
303.15 K, 101.33 kPa, x1 = 9e-07	0.8032 ± 0.041 mPa·s
303.15 K, 101.33 kPa, x1 = 1e-06	0.804 ± 0.041 mPa·s and 0.8048 ± 0.041 mPa·s and 0.8056 ± 0.041 mPa·s
303.15 K, 101.33 kPa, x1 = 1.8e-06	0.8089 ± 0.041 mPa·s
303.15 K, 101.33 kPa, x1 = 2e-06	0.8064 ± 0.041 mPa·s and 0.8097 ± 0.041 mPa·s
303.15 K, 101.33 kPa, x1 = 2.2e-06	0.8105 ± 0.041 mPa·s
305.15 K, 101 kPa, x1 = 0.0002	0.826 ± 0.0053 mPa·s
305.15 K, 101 kPa, x1 = 0.0004	0.8609 ± 0.0055 mPa·s
308.15 K, 101 kPa, x1 = 7.6e-05	0.7487 ± 0.016 mPa·s
308.15 K, 101 kPa, x1 = 0.0001	0.7667 ± 0.0053 mPa·s
308.15 K, 101 kPa, x1 = 0.00015	0.771 ± 0.016 mPa·s
308.15 K, 101 kPa, x1 = 0.000216	0.7923 ± 0.017 mPa·s
308.15 K, 101 kPa, x1 = 0.000286	0.8134 ± 0.017 mPa·s
308.15 K, 101 kPa, x1 = 0.0003	0.8077 ± 0.0056 mPa·s
308.15 K, 101 kPa, x1 = 0.000358	0.834 ± 0.018 mPa·s
308.15 K, 101.3 kPa, x1 = 0.00018	0.764 ± 0.06 mPa·s
308.15 K, 101.3 kPa, x1 = 0.0003604	0.806 ± 0.06 mPa·s
308.15 K, 101.3 kPa, x1 = 0.00054	0.848 ± 0.06 mPa·s
308.15 K, 101.3 kPa, x1 = 0.0007203	0.893 ± 0.06 mPa·s
308.15 K, 101.3 kPa, x1 = 0.0009005	0.943 ± 0.06 mPa·s
308.15 K, 101.3 kPa, x1 = 0.00108	0.984 ± 0.06 mPa·s
308.15 K, 101.3 kPa, x1 = 0.00126	1.026 ± 0.06 mPa·s
308.15 K, 101.3 kPa, x1 = 0.001439	1.072 ± 0.061 mPa·s
310.15 K, 101 kPa, x1 = 0.0002	0.7448 ± 0.0049 mPa·s
310.15 K, 101 kPa, x1 = 0.0004	0.7702 ± 0.005 mPa·s
313.15 K, 101 kPa, x1 = 7.6e-05	0.6801 ± 0.014 mPa·s
313.15 K, 101 kPa, x1 = 0.0001	0.6932 ± 0.0049 mPa·s
313.15 K, 101 kPa, x1 = 0.00015	0.7016 ± 0.015 mPa·s
313.15 K, 101 kPa, x1 = 0.000216	0.722 ± 0.015 mPa·s
313.15 K, 101 kPa, x1 = 0.000286	0.7425 ± 0.016 mPa·s
313.15 K, 101 kPa, x1 = 0.0003	0.7345 ± 0.0052 mPa·s
313.15 K, 101 kPa, x1 = 0.000358	0.7623 ± 0.016 mPa·s
313.15 K, 101.3 kPa, x1 = 0.00018	0.698 ± 0.06 mPa·s
313.15 K, 101.3 kPa, x1 = 0.0003604	0.739 ± 0.06 mPa·s
313.15 K, 101.3 kPa, x1 = 0.00054	0.784 ± 0.06 mPa·s
313.15 K, 101.3 kPa, x1 = 0.0007203	0.822 ± 0.06 mPa·s
313.15 K, 101.3 kPa, x1 = 0.0009005	0.866 ± 0.06 mPa·s
313.15 K, 101.3 kPa, x1 = 0.00108	0.904 ± 0.06 mPa·s
313.15 K, 101.3 kPa, x1 = 0.00126	0.946 ± 0.06 mPa·s
313.15 K, 101.3 kPa, x1 = 0.001439	0.989 ± 0.06 mPa·s
315.15 K, 101 kPa, x1 = 0.0002	0.6863 ± 0.0046 mPa·s
315.15 K, 101 kPa, x1 = 0.0004	0.7114 ± 0.0047 mPa·s
318.15 K, 101 kPa, x1 = 7.6e-05	0.6228 ± 0.013 mPa·s
318.15 K, 101 kPa, x1 = 0.0001	0.6275 ± 0.0046 mPa·s
318.15 K, 101 kPa, x1 = 0.00015	0.6432 ± 0.014 mPa·s
318.15 K, 101 kPa, x1 = 0.000216	0.6631 ± 0.014 mPa·s
318.15 K, 101 kPa, x1 = 0.000286	0.683 ± 0.014 mPa·s
318.15 K, 101 kPa, x1 = 0.0003	0.6686 ± 0.0048 mPa·s
318.15 K, 101 kPa, x1 = 0.000358	0.7027 ± 0.015 mPa·s

OCCOCCOCCO + CS(C)=O
viscosity [mPa·s], 100 kPa
Details	293.15 K	298.15 K	303.15 K	308.15 K	313.15 K	318.15 K
x1 = 0.0266	2.4 ± 0.07	2.27 ± 0.23	2.01 ± 0.06	1.87 ± 0.06	1.72 ± 0.05	1.53 ± 0.05
x1 = 0.0547	2.72 ± 0.08	2.64 ± 0.27	2.36 ± 0.07	2.14 ± 0.06	1.97 ± 0.06	1.74 ± 0.05
x1 = 0.0842	3.09 ± 0.09	3.02 ± 0.31	2.69 ± 0.08	2.42 ± 0.07	2.22 ± 0.07	1.95 ± 0.06
x1 = 0.1155	3.58 ± 0.1	3.49 ± 0.36	3.08 ± 0.09	2.77 ± 0.08	2.52 ± 0.07	2.21 ± 0.07
x1 = 0.1485	4.15 ± 0.12	4.03 ± 0.41	3.55 ± 0.1	3.17 ± 0.09	2.87 ± 0.08	2.5 ± 0.07
x1 = 0.1822	4.76 ± 0.13	4.64 ± 0.47	4.05 ± 0.12	3.61 ± 0.1	3.24 ± 0.09	–
x1 = 0.2192	5.55 ± 0.15	5.38 ± 0.55	4.67 ± 0.13	4.13 ± 0.12	3.7 ± 0.11	–
x1 = 0.2575	6.44 ± 0.17	6.21 ± 0.63	5.36 ± 0.15	4.7 ± 0.13	4.19 ± 0.12	–
x1 = 0.3003	7.57 ± 0.19	7.25 ± 0.74	6.2 ± 0.17	5.42 ± 0.15	4.79 ± 0.14	–
x1 = 0.3422	8.76 ± 0.22	8.35 ± 0.85	7.09 ± 0.19	6.15 ± 0.17	5.42 ± 0.15	–
x1 = 0.3888	10.2 ± 0.3	9.68 ± 0.98	8.15 ± 0.21	7.03 ± 0.19	6.15 ± 0.17	–
x1 = 0.4385	11.9 ± 0.3	11.2 ± 1.1	9.36 ± 0.24	8.03 ± 0.21	6.98 ± 0.19	–
x1 = 0.4915	13.9 ± 0.3	13 ± 1.3	10.8 ± 0.3	9.17 ± 0.23	7.91 ± 0.21	–
x1 = 0.5521	16.4 ± 0.4	15.2 ± 1.5	12.5 ± 0.3	10.6 ± 0.3	9.07 ± 0.23	–
x1 = 0.6114	19.2 ± 0.4	17.6 ± 1.8	14.3 ± 0.4	12 ± 0.3	10.2 ± 0.3	–
x1 = 0.6754	22.3 ± 0.5	20.3 ± 2.1	16.4 ± 0.4	13.7 ± 0.3	11.5 ± 0.3	–
x1 = 0.7463	26 ± 0.6	23.6 ± 2.4	18.9 ± 0.5	15.7 ± 0.4	13.1 ± 0.3	–
x1 = 0.8233	30.6 ± 0.7	27.5 ± 2.8	21.8 ± 0.5	17.9 ± 0.4	14.9 ± 0.4	–
x1 = 0.9083	35.9 ± 0.8	32 ± 3.2	25.2 ± 0.6	20.5 ± 0.5	16.9 ± 0.4	–
